For series [1], the system named is HL-60(TB). Also on record: method as in https://dtp.cancer.gov/dtpstandard/dwindex/index.jsp. The settings on record: ref https://dtp.cancer.gov/dtpstandard/dwindex/index.jsp; cited from earlier work.
Another series has as its system RPMI-8226. Further details: method as in https://dtp.cancer.gov/dtpstandard/dwindex/index.jsp. The settings on record: PRMI-8226; ref https://dtp.cancer.gov/dtpstandard/dwindex/index.jsp; cited from earlier work.
The subject of another series is CCRF-CEM. The experiment in a line: NCI anticancer screening (SRB), Leukemia subpanel. The series is classed as cell-based, human. The settings on record: for GI%: 10.0 µM in one dose.
For series [2], the system named is HL-60(TB). The experiment in a line: NCI anticancer screening (SRB), Leukemia subpanel. In kind it is cell-based, human. The conditions noted are these: for GI%: 10.0 µM in one dose.
For another series, the system named is MOLT-4. The experiment in a line: NCI anticancer screening (SRB), Leukemia subpanel. The conditions noted are these: for GI%: 10.0 µM in one dose. The series is classed as cell-based, human.
In another series the test system is A549/ATCC. Nature of the series: NCI anticancer screening (SRB), Non-Small Cell Lung Cancer subpanel. The series is classed as cell-based, human. The conditions noted are these: for GI%: 10.0 µM in one dose.
The subject of the next series is EKVX. The description is as above. The settings on record: for GI%: 10.0 µM in one dose. The series is classed as cell-based, human.
Another series relates to NCI-H226. The series is described as above. The series is classed as cell-based, human. The conditions noted are these: for GI%: 10.0 µM in one dose.
The next series concerns NCI-H460. The description is as above. The conditions noted are these: for GI%: 10.0 µM in one dose. The series is classed as cell-based, human.
Another series relates to HCT-116. Nature of the series: NCI anticancer screening (SRB), Colon Cancer subpanel. In kind it is cell-based, human. The conditions noted are these: for GI%: 10.0 µM in one dose.
In a further series the test system is KM12. Described as above. The series is classed as cell-based, human. The conditions noted are these: for GI%: 10.0 µM in one dose.
A further series relates to SF-268. Nature of the series: NCI anticancer screening (SRB), CNS Cancer subpanel. The settings on record: for GI%: 10.0 µM in one dose. The series is classed as cell-based, human.
Another series relates to SF-539. Described as above. In kind it is cell-based, human. The settings on record: for GI%: 10.0 µM in one dose.
For another series, the system named is SNB-19. Described as above. In kind it is cell-based, human. The settings on record: for GI%: 10.0 µM in one dose.
The next series has as its system LOX IMVI. Nature of the series: NCI anticancer screening (SRB), Melanoma subpanel. In kind it is cell-based, human. The settings on record: for GI%: 10.0 µM in one dose.
A further series deals with SK-MEL-28. Nature of the series: NCI anticancer screening (SRB), Melanoma subpanel. In kind it is cell-based, human. The settings on record: for GI%: 10.0 µM in one dose.
A further series relates to SK-MEL-5. The experiment in a line: NCI anticancer screening (SRB), Melanoma subpanel. The conditions noted are these: for GI%: 10.0 µM in one dose. The series is classed as cell-based, human.
The test system of the next series is IGROV1. Nature of the series: NCI anticancer screening (SRB), Ovarian Cancer subpanel. The conditions noted are these: for GI%: 10.0 µM in one dose. In kind it is cell-based, human.
For another series, the system named is OVCAR-5. The series is described as above. The conditions noted are these: for GI%: 10.0 µM in one dose. In kind it is cell-based, human.
The test system of another series is NCI/ADR-RES. The series is described as above. The settings on record: for GI%: 10.0 µM in one dose. The series is classed as cell-based, human.
Another series concerns ACHN. The experiment in a line: NCI anticancer screening (SRB), Renal Cancer subpanel. The conditions noted are these: for GI%: 10.0 µM in one dose. In kind it is cell-based, human.
The next series deals with RXF 393. Described as above. In kind it is cell-based, human. The settings on record: for GI%: 10.0 µM in one dose.
In a further series the test system is UO-31. The series is described as above. The series is classed as cell-based, human. The conditions noted are these: for GI%: 10.0 µM in one dose.
In the next series the test system is PC-3. Nature of the series: NCI anticancer screening (SRB), Prostate Cancer subpanel. The series is classed as cell-based, human. The conditions noted are these: for GI%: 10.0 µM in one dose.
The test system of another series is DU-145. The series is described as above. The series is classed as cell-based, human. The conditions noted are these: for GI%: 10.0 µM in one dose.
A further series has as its system HS 578T. Nature of the series: NCI anticancer screening (SRB), Breast Cancer subpanel. The series is classed as cell-based, human. The settings on record: for GI%: 10.0 µM in one dose.
The next series deals with MDA-MB-468. The series is described as above. In kind it is cell-based, human. The conditions noted are these: for GI%: 10.0 µM in one dose.
The nature of a further series: in vitro. The settings on record: human. As to the method:
the measured protein at the end of the drug treatment as compared to that at the beginning) indicating a net loss of cells following treatment was calculated from [(Ti − Tz)/Tz] […] = − 50.
Values were calculated for each of these three parameters if the activity level was reached; however, if the effect was not reached or exceeded, that parameter's value was expressed as more or less than the maximum or minimum concentration tested. The log GI50, log TGI, and log LC50 were then determined and defined as the mean of the logs of the individual GI50, TGI, and LC50 values. The lowest values are obtained with the most sensitive cell lines. The compound with log GI50 values −4 and <−4 was declared active.
2. In vitro cytotoxic activity towards normal fibroblast (WI-38) cells Cell Lines were obtained from the American Type Culture Collection; cells were cultured using DMEM (Invitrogen/Life Technologies) supplemented with 10% FBS (Hyclone), ten ug/ml of insulin (Sigma), and 1% penicillin–streptomycin. Cultures were removed from the incubator into a laminar flow hood, reconstituted with 3 mL of balanced salt solution without phenol red and serum, and then added to an amount equal to 10% of the culture medium volume. Cultures returned to the incubator for 2–4 h. After the incubation period, the resulting formazan crystals dissolved […]
medium volume. The absorbance was measured Spectrophotometrically at a wavelength of 570 […]
3. In vitro cyclooxygenase (COX-2) inhibition assay
The ability of the test compounds to inhibit COX-2 was determined using an enzyme immunoassay […]
manufacturer’s instructions.

A further series concerns caspase-9. The experiment in a line: Apoptotic markers assay, caspase-9 level in MCF-7 cells. In kind it is cell-based, human. The settings on record: MCF-7 cells treated at IC50 concentrations; vs untreated control = 1. As to the method: We measured the apoptosis promoter Bax levels, the apoptosis inhibitor Bcl−2, and the apoptosis coordination enzymes caspase-8 and caspase-9 [32].
The apoptotic marker method was carried out using the reported procedure using MCF-7, the cancer cell line (Supplementary Materials). […]
7. Caspase-8 and 9 activation assay
A breast carcinoma (MCF-7) cell line was obtained from ATCC. […]
allowed cells to grow at 37 °C, stimulated with the compounds to be tested for caspase-8 or caspase-9 and lysed with Cell Extraction Buffer. Standard Diluent Buffer was used to dilute the lysate over the range of the assay and measure human active caspase-8 or caspase-9 content. (cells are Plated in a density of 1.2-1.8 X 10,000 cells/well in a volume of 100 µL complete growth medium + 100 µL of the tested compound per well in a 96-well plate for 24/48 h before the enzyme assay).
8. Evaluation of Bax and Bcl-2 expressions m RNA isolation was carried out using an RNeasy extraction kit, up to 1 X 107 cells. They were disrupted in Buffer RLT and homogenized. Ethanol was added to the lysate to promote the selective binding of RNA to the RNeasy membrane. Then, the sample was applied to the RNeasy

The next series relates to HOP-92. Further details: method as in https://dtp.cancer.gov/dtpstandard/dwindex/index.jsp. The settings on record: ref https://dtp.cancer.gov/dtpstandard/dwindex/index.jsp; cited from earlier work.
Setting [3] is: Homo sapiens, five concentrations.

In general, GI50 refers to the concentration at which growth is held to half of that of the control. Usually IC50 stands for the concentration needed to halve the response being measured. Read a high IC50 as a need for much substance.

Values joined by “and” are separate entries in the source; they are usually repeats but may differ in a detail not shown here. Equal values may be shown once. Read-outs that look alike come from different tables or passages of the source. A value given as a limit tells only on which side of the number the result lay.

Consider `Cc1ccc(-c2cc(C(F)(F)F)nn2-c2ccc(S(N)(=O)=O)cc2)cc1` [Celecoxib, celecoxib], for which the GI50 with HL-60(TB) [1] is 15800 nM; with RPMI-8226, 3980 nM.
On to `CS(=O)(=O)Nc1ccc(C(=O)NN=Cc2ccccc2O)cc1` [Compound 7], for which the GI% in the series with CCRF-CEM came to 63%; in the series on HL-60(TB) [2], 22%; with MOLT-4 it was 50%; with A549/ATCC it was 11%; in the series with EKVX, 26%; in the series with NCI-H226, 25%. In addition, the GI% in the series on NCI-H460 turned out to be 21%; in the series with HCT-116, 59%; in the series on KM12, 35%; in the series on SF-268, 48%; in the series on SF-539 it was 40%; in the series on SNB-19, 32%. The GI% in the series on LOX IMVI is listed as 53%; in the series on SK-MEL-28 it was 37%; with SK-MEL-5, 33%; in the series on IGROV1, 25%; in the series on OVCAR-5 it was 23%; in the series with NCI/ADR-RES, 41%. The GI% in the series with ACHN is 46%; with RXF 393, 21%; in the series with UO-31 it was 64%; in the series on PC-3 it was 38%; with DU-145, 33%; in the series with HS 578T, 11%. Further, the GI% in the series with MDA-MB-468 is on record as 24%. In “in vitro”, this compound yielded an IC50 of 111000 nM. The “Casp9, Gene Expression (Fold Change)” value with caspase-9 is 2.99 fold change and 2.990 fold change.
For `CCN(CC)c1ccc(C=NNC(=O)c2ccc(NS(C)(=O)=O)cc2)c(O)c1` [Compound 8], the GI% in the series on CCRF-CEM came out at 94%; in the series on HL-60(TB) [2], 99%; with MOLT-4, 90%; with A549/ATCC, 88%; with EKVX it was 84%; in the series with NCI-H226, 61%. The GI% in the series with NCI-H460 worked out at 97%; in the series on HCT-116, 78%; in the series with KM12 it was 85%; with SF-268 it was 77%; in the series with SF-539, 93%; in the series with SNB-19, 65%. The GI% in the series with LOX IMVI came to 100%; in the series on SK-MEL-28 it was 77%; in the series on SK-MEL-5 it was 100%; with IGROV1, 80%; with OVCAR-5, 54%; with NCI/ADR-RES, 63%. For the same compound, the GI% was 84% in the series on ACHN; above 100% with RXF 393; 87% with UO-31; 68% in the series on PC-3; 69% in the series with DU-145; 44% in the series on HS 578T. This compound gave a GI% in the series with MDA-MB-468 above 100%. In addition, the GI50 in the series with CCRF-CEM (setting [3]) was 177 nM; with HL-60(TB) [2] (setting [3]), 300 nM; with MOLT-4 (setting [3]) it was 372 nM; with A549/ATCC (setting [3]), 1340 nM; in the series with EKVX (setting [3]) it was 386 nM; in the series on NCI-H226 (setting [3]) it was 986 nM. Also, the GI50 in the series on NCI-H460 (setting [3]) was 475 nM; with HCT-116 (Homo sapiens), 263 nM; in the series with KM12 (setting [3]) it was 509 nM; with SF-268 (setting [3]), 252 nM; in the series with SF-539 (setting [3]) it was 362 nM; with SNB-19 (setting [3]) it was 831 nM. Also, the GI50 came out at 209 nM in the series with LOX IMVI (setting [3]); 381 nM in the series on SK-MEL-28 (setting [3]); 1130 nM in the series on SK-MEL-5 (setting [3]); 544 nM with IGROV1 (Homo sapiens, IGROV-1, five concentrations); 1890 nM in the series with OVCAR-5 (setting [3]); 2580 nM in the series on NCI/ADR-RES (setting [3]). Besides, the GI50 in the series on ACHN (setting [3]) amounted to 513 nM; in the series on RXF 393 (setting [3]) it was 1040 nM; in the series on UO-31 (setting [3]) it was 346 nM; in the series on PC-3 (setting [3]) it was 368 nM; in the series on DU-145 (setting [3]), 685 nM; with HS 578T (setting [3]), 1470 nM. Moreover, in the series with MDA-MB-468 (setting [3]), growth was halved (GI50) at 335 nM. This compound also returned an IC50 in “in vitro” of 82100 nM. Also, the “Casp9, Gene Expression (Fold Change)” value with caspase-9 was 3.776 fold change.
As for `C#Cc1cccc(Nc2ncnc3cc(OCCOC)c(OCCOC)cc23)c1` [Erlotinib, erlotinib], the GI50 in the series on HL-60(TB) [1] is 25100 nM; in the series on RPMI-8226, 25100 nM; in the series with HOP-92, 3980 nM.
With `COc1cc2ncnc(Nc3ccc(F)c(Cl)c3)c2cc1OCCCN1CCOCC1` [Gefitinib, gefitinib], the GI50 in the series on HOP-92 was 316 nM.

(Values after publication PMC11728000, “Antitumor Activity and Multi-Target Mechanism of Phenolic Schiff Bases Bearing Methanesulfonamide Fragments: Cell Cycle Analysis and a Molecular Modeling Study” (International Journal of Molecular Sciences, 2024).)
